Data set [1] in a line: Solubility of oxidized glutathione in water. Format: physicochemical. From the text:
Utilizing this characteristic, a solution of oxidized glutathione with concentration beyond saturation solubility can be prepared. […] While the concentration of the supersaturated aqueous oxidized glutathione solution containing a conducting agent other than acid is not limited as long as it can maintain supersaturation state, it is 50 g/L or more, preferably 100 g/L or more, more preferably 150 g/L or more, further preferably 200 g/L or more, most preferably 300 g/L or more.

The conditions of data set [2]: 25° C., 24-36 hr. The procedure: Using an aqueous reduced glutathione solution (100 g/L, pH 2.90) and sulfuric acid, aqueous reduced glutathione solutions (100 g/L) adjusted to pH 0.6, 1.2 and 2.0 were produced.
Each solution was preserved at 25° C. for 24-36 hr, and the residual amount of reduced glutathione was quantified by high performance liquid chromatography (HPLC) under the following conditions. […] As for the impurity, the total amount of the substances other than reduced glutathione and oxidized glutathione was quantified under the following HPLC conditions, and the concentration (g/L) converted to reduced glutathione was calculated.
HPLC Conditions • column: Nucleosil 100-5 C18 φ4.6×150 mm • column temperature: 40° C. • buffer: 10% acetonitrile solution containing 0.405% sodium 1-heptanesulfonate (adjusted to pH 2.0 with phosphoric acid) • flow rate: 1.0 mL/min • detector: UV detector (wavelength 210 nm)

Turning to oxidized glutathione, the “stability of supersaturation state” value in data set [1] (ambient temperature, requires several days before crystallizing) was “stable at ambient temperature”. Besides, the supersaturation solubility entry in data set [1] (once dissolved, aqueous solution) is “over 300 g/L”. Moreover, the “saturation solubility in water” value in data set [1] (water, ambient temperature (25° C.)) was at most 20 mg/mL.

On to `N[C@@H](CCC(=O)N[C@@H](CS)C(=O)NCC(=O)O)C(=O)O` [reduced glutathione], for which the “reduced glutathione residual ratio” value in data set [2] (100 g/L aqueous solution at pH 2.0 or less (pH 0.6, 1.2, 2.0, sulfuric acid) vs pH 2.90, FIG. 1A) is recorded as “lower reduced glutathione residual ratio as compared to a solution at pH 2.90”. Besides, the “increased amount of impurity due to hydrolysis” value in data set [2] (100 g/L aqueous solution at pH 2.0 or less vs pH 2.90, FIG. 1B) was “higher increased amount of impurity due to hydrolysis as compared to a solution at pH 2.90”.

The values above are taken from patent publication US9249517B2, “Process for production of reduced glutathione” (Kyowa Hakko Bio Co., Ltd., priority 2009, dated 2016).
